Patent publication US20090286836A1, “Novel Compounds” (priority 2008, published 2009)
Structures can show the parent of a compound that is named as a salt.

Experiments:
human NK1 receptor [1] = target: T1, human NK1 receptor (Homo sapiens, UniProt P25103); test: NK functional potency, FLIPR calcium release in U2OS cells (Substance P as ligand); assay type: cell-based; design: expressed in transfected cells; host or cells: human U2OS cells transiently transduced with recombinant BacMam virus; details: BacMam human NK1, average of at least two determinations, read-out: NK1 pKi (functional potency, fpKi) (converted)
T1 sequence (P25103 whole entry): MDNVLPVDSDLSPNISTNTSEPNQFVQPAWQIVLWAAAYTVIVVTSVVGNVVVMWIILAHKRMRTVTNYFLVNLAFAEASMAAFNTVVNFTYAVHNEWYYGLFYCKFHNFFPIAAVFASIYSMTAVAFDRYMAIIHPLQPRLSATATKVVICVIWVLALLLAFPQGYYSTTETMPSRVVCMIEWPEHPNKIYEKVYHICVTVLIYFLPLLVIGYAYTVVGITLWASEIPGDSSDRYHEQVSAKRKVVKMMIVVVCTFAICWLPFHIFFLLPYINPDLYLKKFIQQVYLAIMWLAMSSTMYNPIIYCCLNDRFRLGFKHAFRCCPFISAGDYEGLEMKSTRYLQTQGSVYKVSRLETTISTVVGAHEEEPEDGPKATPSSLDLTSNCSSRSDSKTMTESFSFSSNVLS
From the text: (§1) Compounds of the invention were further characterised in a functional assay using FLIPR technology for the determination of their effect to inhibit the intracellular calcium release induced by interaction of NK receptors with its perspective ligands. Human U2OS cells transiently transduced with recombinant BacMam virus expressing human NK1, NK2 and NK3 receptors were used in the studies (see J. P. Condreay et al, Proc. Natl. Acad. Sci. USA 1999, 96(1): 127-132). Briefly, U2OS cells were harvested from tissue culture flasks, re-suspended to a cell density of 200-300K/ml and mixed with recombinant BacMam virus carrying NKR gene in a virus/cell ratio of 1% (v/v). 10K-15K cells/well were then seeded in 384-well Greiner bio-one plate in culture medium (DMEM with 10% FBS), incubated overnight in 5% CO2 at 37° C. After aspirating the medium, cells were loaded 18-24 hr later with cytoplasmic calcium indicator Fluo-4 Calcium 3 dye (Molecular Devices Co.) in 30 uL/well buffer (Hank's balanced salts with 20 mM Hepes) and incubated in CO2 at 37° C. for 60 minutes. 10 uL/well assay buffer (Hank's balanced salts with 20 mM Hepes) containing different concentrations of compounds were then added to the cells for 30 minutes incubation at 37° C. Finally, 10 uL/well of NKR ligands in assay buffer containing 0.1% BSA was added to the cells and fluorescence signal read on a FLIPR system. Substance P, NKA and NKB peptides were used as the ligands for NK1, NK2 and NK3 receptor, respectively. IC50 values of each compound were determined by an 11-point 3×-dilution inhibition curve. The potency each antagonist (fpKi) was calculated from pIC50 by the Cheng-Prusoff equation using EC50 of ligand determined in a separate experiment.
(§2) The compounds of Example 11, Examples 2, 4 and 6 were tested in the NK functional potency assay.

human NK3 receptor = target: T2, human NK3 receptor (Homo sapiens, UniProt P29371); test: NK functional potency, FLIPR calcium release in U2OS cells (NKB as ligand); assay type: cell-based; details: BacMam human NK3, average of at least two determinations, read-out: NK3 pKi (functional potency, fpKi) (converted)
T2 construct: expressed in transfected cells; host or cells: human U2OS cells transiently transduced with recombinant BacMam virus
T2 sequence (P29371 1-465): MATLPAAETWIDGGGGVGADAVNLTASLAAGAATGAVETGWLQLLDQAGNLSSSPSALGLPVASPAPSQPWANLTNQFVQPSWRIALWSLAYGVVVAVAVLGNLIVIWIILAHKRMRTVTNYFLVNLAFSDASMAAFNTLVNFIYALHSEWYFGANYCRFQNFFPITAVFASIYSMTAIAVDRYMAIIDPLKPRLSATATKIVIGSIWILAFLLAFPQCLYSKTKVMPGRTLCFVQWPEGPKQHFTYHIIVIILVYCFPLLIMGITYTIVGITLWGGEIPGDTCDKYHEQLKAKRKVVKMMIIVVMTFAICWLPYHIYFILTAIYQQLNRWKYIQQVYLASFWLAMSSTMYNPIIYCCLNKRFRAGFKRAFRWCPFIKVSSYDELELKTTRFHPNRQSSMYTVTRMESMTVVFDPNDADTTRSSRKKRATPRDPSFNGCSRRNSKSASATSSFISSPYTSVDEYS
From the text: as §1, §2

human NK2 receptor = target: T3, human NK2 receptor (Homo sapiens, UniProt P21452); test: NK functional potency, FLIPR calcium release in U2OS cells (NKA as ligand); assay type: cell-based; details: BacMam human NK2, average of at least two determinations, read-out: NK2 pKi (functional potency, fpKi) (converted)
T3 construct: expressed in transfected cells; host or cells: human U2OS cells transiently transduced with recombinant BacMam virus
T3 sequence (P21452 1-398): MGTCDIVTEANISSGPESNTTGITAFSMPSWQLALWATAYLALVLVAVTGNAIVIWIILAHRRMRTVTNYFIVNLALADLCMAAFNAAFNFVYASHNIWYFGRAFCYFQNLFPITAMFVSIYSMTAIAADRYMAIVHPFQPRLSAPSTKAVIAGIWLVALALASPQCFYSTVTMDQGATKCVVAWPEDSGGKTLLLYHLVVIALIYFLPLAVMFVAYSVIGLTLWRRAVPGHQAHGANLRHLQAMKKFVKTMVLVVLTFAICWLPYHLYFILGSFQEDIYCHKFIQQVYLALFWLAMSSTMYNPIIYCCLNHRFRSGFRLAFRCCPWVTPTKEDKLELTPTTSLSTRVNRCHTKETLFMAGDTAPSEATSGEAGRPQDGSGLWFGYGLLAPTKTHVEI
From the text: as §1, with “After aspirating the medium, cells were loaded 18-24 hr later with cytoplasmic calcium indicator Fluo-4 Calcium 3 dye (Molecular Devices Co.) in 30 uL/well buffer (Hank's balanced salts with 20 mM Hepes) and incubated in CO2 at 37° C. for 60 minutes. 10 uL/well assay buffer (Hank's balanced salts with 20 mM Hepes) containing different concentrations of compounds were then added to the cells for 30 minutes incubation at 37° C.” left out, “Substance P, NKA and NKB peptides were used as the ligands for NK1, NK2 and NK3 receptor, respectively.” left out, “experiment. […]” for “experiment.”

common marmosets = test: marmoset human threat test; assay type: in vivo, common marmoset; details: for No. jumps / No. postures: marmoset, oral, 1 h before test; for No. jumps: mean±SEM (n=4), index of locomotor activity; for No. postures: mean±SEM (n=7)
Description: For example the marmoset human threat test (Costall et al., 1988
The study utilised in house laboratory-bred male and female common marmosets over 2 years of age, weighing 300-500 g. The animals were caged in couples, in a housing room maintained at 25±1° C., 60% humidity and a 12 hour light/dark cycle (lights on at 0600, with 30 min simulated dawn and twilight). Testing was carried out with the animals situated in the home cage.
One hour before the test animals were treated orally with vehicle (0.5% HPMC) or test compound (1 ml/kg). After a wash-out period of at least three days, treatments were reassigned and the study was complete when all animals had received all treatments. Number of specific behavioural postures in response to the human threat and the number of jumps were analysed in this study. The postures recorded in the test were those described by Costall et al (1988). and the number of jumps from the back of the cage to the cage front provided an index of locomotor activity to assess potential for sedation or locomotor stimulation.
Results are expressed as mean±SEM (n=7). of number of postures and as a mean±SEM (n=4) of number of jumps. Data were subjected to one-way analysis of variance (ANOVA) followed by Dunnett's test, comparing each compound dose with vehicle treatment, using Statistica software (version 8.0) Statistically significant differences with respect to vehicle are indicated as *P<0.01.

NK1 receptor = target: T4, NK1 receptor (Meriones unguiculatus, UniProt Q5DUB1); test: gerbil foot tapping model (GR73632-induced, icv); assay type: in vivo
T4 construct: from tissue; host or cells: living gerbils; central nervous system (icv agonist GR73632)
T4 sequence (Q5DUB1 whole entry): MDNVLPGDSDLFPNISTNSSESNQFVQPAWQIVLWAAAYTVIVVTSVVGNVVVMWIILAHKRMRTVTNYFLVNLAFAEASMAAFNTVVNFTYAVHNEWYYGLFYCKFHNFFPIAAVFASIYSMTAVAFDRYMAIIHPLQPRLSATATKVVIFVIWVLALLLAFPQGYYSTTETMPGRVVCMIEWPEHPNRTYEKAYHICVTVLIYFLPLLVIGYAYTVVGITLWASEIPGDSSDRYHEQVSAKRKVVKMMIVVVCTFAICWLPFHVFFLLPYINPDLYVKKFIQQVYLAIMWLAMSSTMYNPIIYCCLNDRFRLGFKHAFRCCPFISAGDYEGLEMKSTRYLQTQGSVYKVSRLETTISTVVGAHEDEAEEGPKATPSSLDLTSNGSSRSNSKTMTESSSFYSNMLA
From the text: The ability of the compounds of the invention to penetrate the central nervous system and to bind at the NK1 receptor may be determined using the gerbil foot tapping model as described by Rupniak & Williams, Eur. Jour. of Pharmacol., 1994. Intracerebroventricular (icv) administration of the NK1 receptor agonist GR73632 (R. M. Hagan et al., Neuropeptides 1991, 19 (2), 127-135) a characteristic hind leg foot tapping (GFT) response in gerbils which can be inhibited by potent NK1 receptor antagonists. The gerbil foot tapping paradigm was carried out as follows; gerbils were dosed with compound of the invention, and following an appropriate pre-treatment time were anaesthetised using isofluorane/oxygen mixture. The skull was then exposed and 5 ul of GR73632 ([…].) was injected by insertion of a cuffed 25G needle to a depth of 4 mm below bregma, directly into the lateral ventricle (intracerebroventricular dosing). Immediately following the injection, gerbils were placed individually into a clear observation box to recover.
Upon the gerbil regaining its righting reflex, the duration of repetitive hind foot tapping was recorded over a 5 minute period. The dose of the test compound required to inhibit by 50% the tapping induced by the NK1 agonist expressed as mg/kg is referred to as the ID50 values.

human NK1 receptor [2] = target: T1, human NK1 receptor; test: NK1 filtration binding assay with [3H]-GR205171 on human NK1-CHO cell membranes; design: expressed in transfected cells; details: average of five independent experiments, [3H]-GR205171 radioligand, read-out: NK1 binding affinity pKi (converted)
Description: The NK1 binding affinity of the compounds of the invention was determined using the following filtration binding assay using [^3H]-GR205171 as radioligand for human NK1 receptor stably expressed in CHO (Chinese Hamster Ovary) cells (see C. Griffante et al, Br. J. Pharmacol. 2006, 148, 39-45; H. M. Sarau et al, J. Pharmacol. Experimental Therapeutics 2000, 295(1), 373-381 and D. T. Beattie et al., Br. J. Pharmacol. 1995, 116, 3149-3157).
CHO cells stably expressing the human cloned neurokinin NK1 receptor were cultured in Dulbecco's Modified Eagle's Medium/F12 Ham (DMEM/F12Ham) supplemented with 10% foetal bovine serum and 2 mM L-glutamine. Cells were maintained in 5% CO2 in a humidified incubator at 37° C. […]
Binding assay was carried out in 96 deep well polypropylene plates (Whatman) in a volume of 400 μl consisted of 100 μl of incubation buffer (containing 50 mM HEPES, pH 7.4, 3 mM MnCl2, and 0.02% BSA), 4 μl of DMSO (total binding) or increasing concentrations of the compounds in the invention dissolved in DMSO (1 pM-1 μM final concentration), 100 μl of the radioligand [^3H]-GR205171 (0.2 nM final concentration) in incubation buffer and 200 μl of human NK1-CHO cell membranes suspension (4 μg/ml final) in incubation buffer. […] Filterplates were dried and retained radioactivity was counted in a Top Count (Perkin-Elmer). […]

Row | Structure (SMILES) | Ki (human NK1 receptor [1]) [nM] | Ki (human NK3 receptor) [nM] | Ki (human NK2 receptor) [nM] | effect on number of postures (anxiolytic effect) (common marmosets; marmoset, 0.1, 0.3 or 1 mg/kg oral, significant at 0.3 and 1 mg/kg (P<0.01), no reduction in number of jumps) | No. jumps (common marmosets; 0.1 mg/kg) | No. postures (common marmosets; 0.1 mg/kg) | No. jumps (common marmosets; 0.3 mg/kg) | No. postures (common marmosets; 0.3 mg/kg, *P<0.01 vs vehicle) | No. jumps (common marmosets; 1 mg/kg) | No. postures (common marmosets; 1 mg/kg, *P<0.01 vs vehicle) | GR73632-induced Foot Tapping behaviour (NK1 receptor; gerbil, 0.3, 1.0 and 3.0 mg/kg p.o (P<0.01)) | ID50 as plasma concentration (NK1 receptor; gerbil, p.o., GR73632 icv) | ED50 (NK1 receptor; po, gerbil, p.o., GR73632 icv, read-out: ID50, dose inhibiting by 50% the foot tapping induced by the NK1 agonist) [mg/kg] | Ki (human NK1 receptor [2]) [nM]
1 | Cc1cc(F)ccc1-c1cc([C@H]2CC[C@](C)(C(N)=O)N2)ncc1N(C)C(=O)C(C)(C)c1cc(C(F)(F)F)cc(C(F)(F)F)c1 [Example 2, (5R)-5-[5-[{2-[3,5-bis(trifluoromethyl)phenyl]-2-methylpropanoyl}(methyl)amino]-4-(4-fluoro-2-methylphenyl)-2-pyridinyl]-2-methyl-D-prolinamide hydrochloride] | < 0.17 | 79.4 | – | – | – | – | – | – | – | – | – | – | – | –
2 | Cc1cc(F)ccc1-c1cc([C@H]2CC[C@@](C)(C(N)=O)N2)ncc1N(C)C(=O)C(C)(C)c1cc(C(F)(F)F)cc(C(F)(F)F)c1 [Example 4, (5R)-5-[5-[{2-[3,5-bis(trifluoromethyl)phenyl]-2-methylpropanoyl}(methyl)amino]-4-(4-fluoro-2-methylphenyl)-2-pyridinyl]-2-methyl-L-prolinamide hydrochloride] | < 0.17 | 63.1 | – | – | – | – | – | – | – | – | – | – | – | –
3 | Cc1cc(F)ccc1-c1cc([C@@H]2CC[C@](C)(C(N)=O)N2)ncc1N(C)C(=O)C(C)(C)c1cc(C(F)(F)F)cc(C(F)(F)F)c1 [Example 6, (5S)-5-[5-[{2-[3,5-bis(trifluoromethyl)phenyl]-2-methylpropanoyl}(methyl)amino]-4-(4-fluoro-2-methylphenyl)-2-pyridinyl]-2-methyl-D-prolinamide hydrochloride] | < 0.17 | 158 | – | – | – | – | – | – | – | – | – | – | – | –
4 | Cc1cc(F)ccc1-c1cc([C@H]2CC[C@](C)(C(N)=O)N2)ncc1N(C)C(=O)C(C)(C)c1cc(C(F)(F)F)cc(C(F)(F)F)c1 [Example 11, (5R)-5-[5-[{2-[3,5-bis(trifluoromethyl)phenyl]-2-methylpropanoyl}(methyl)amino]-4-(4-fluoro-2-methylphenyl)-2-pyridinyl]-2-methyl-D-prolinamide bis-hydrochloride] | 0.0794 | 31.6 | > 1000 | dose dependent reduction in the number of postures | 20.1 ± 2.1 | 9.4 ± 1.0 | 13.4 ± 2.5 | *6.3 ± 0.9 | 13.0 ± 2.1 | *4.0 ± 0.4 | significantly attenuated | approximately 5 ng/ml plasma | ~0.2 | 0.132
